pIC50: −log10 of the molar value. Like-named read-outs stand apart in the source and are kept apart here. Each block holds one molecule with its values, some of them ahead of it.
How the values were obtained:
Format in all cases: biochemical
[1] = target: CDK4/CCND3 (Homo sapiens, UniProt P11802); assay: CDK4 homogeneous time-resolved fluorescence (HTRF) kinase assay; details: CDK4/CCND
Summary of the method: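 HTRF kinase assay, CDK4/CCND3 1.5 nM, ATP 1 mM, ULight-4E-BP1 peptide 50 nM, 23 °C, 60 min reaction after 20 min preincubation. Eu-anti-pThr37/46 antibody detection. 11-pt half-log curves from 10 μM → IC50.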

[2] = target: CDK2/CCNE1 (Homo sapiens, UniProt P24941); assay: CDK2 homogeneous time-resolved fluorescence (HTRF) kinase assay; details: CDK2/CCNE
Summary of the method: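 IC50 derived from 11-point, half-log dilutions (usually top 10 μM) of compound, 1% DMSO. Kinase (3 nM CDK2/CCNE1) was preincubated with compound 20 min, then phosphorylated 50 nM ULight-4E-BP1 peptide at 1 mM ATP for 60 min, 23 °C. Europium-antibody TR-FRET read after EDTA stop.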

[3] = target: CDK6/CCND1 (Homo sapiens, UniProt Q00534); assay: CDK6 homogeneous time-resolved fluorescence (HTRF) kinase assay; details: CDK6/CCND
CDK6/CCND1, sequence (Q00534 whole entry): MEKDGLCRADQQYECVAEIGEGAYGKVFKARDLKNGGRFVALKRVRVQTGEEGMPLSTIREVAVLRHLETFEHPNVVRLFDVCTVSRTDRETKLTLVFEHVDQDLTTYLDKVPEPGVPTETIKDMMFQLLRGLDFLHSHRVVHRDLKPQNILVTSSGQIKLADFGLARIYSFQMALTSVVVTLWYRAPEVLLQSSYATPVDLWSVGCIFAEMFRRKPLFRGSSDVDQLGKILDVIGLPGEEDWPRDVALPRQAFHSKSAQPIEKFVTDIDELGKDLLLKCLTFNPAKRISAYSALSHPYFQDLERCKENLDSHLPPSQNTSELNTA
CDK6/CCND1, sequence (P24385 whole entry partner): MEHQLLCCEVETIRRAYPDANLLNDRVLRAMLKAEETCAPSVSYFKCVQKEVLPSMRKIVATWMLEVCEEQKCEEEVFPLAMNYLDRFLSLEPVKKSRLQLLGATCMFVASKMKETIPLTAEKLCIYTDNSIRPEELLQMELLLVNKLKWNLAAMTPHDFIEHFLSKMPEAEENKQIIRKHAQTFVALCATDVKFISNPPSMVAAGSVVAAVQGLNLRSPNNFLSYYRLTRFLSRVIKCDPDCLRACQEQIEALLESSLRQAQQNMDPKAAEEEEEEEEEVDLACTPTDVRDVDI
Summary of the method: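 Recombinant CDK6/CCND1 (1 nM final) was preincubated with compound for 20 min at 23 °C in HEPES buffer with MgCl2, EGTA, DTT and Tween 20. Kinase reaction then ran 60 min at 23 °C with 1 mM ATP and 50 nM ULight-4E-BP1 (Thr37/46) peptide, and was stopped with EDTA.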

[4] = target: CDK1/CCNB1 (Homo sapiens, UniProt P06493); assay: CDK1 homogeneous time-resolved fluorescence (HTRF) kinase assay; details: CDK1/CCNB
CDK1/CCNB1, sequence (P06493 whole entry): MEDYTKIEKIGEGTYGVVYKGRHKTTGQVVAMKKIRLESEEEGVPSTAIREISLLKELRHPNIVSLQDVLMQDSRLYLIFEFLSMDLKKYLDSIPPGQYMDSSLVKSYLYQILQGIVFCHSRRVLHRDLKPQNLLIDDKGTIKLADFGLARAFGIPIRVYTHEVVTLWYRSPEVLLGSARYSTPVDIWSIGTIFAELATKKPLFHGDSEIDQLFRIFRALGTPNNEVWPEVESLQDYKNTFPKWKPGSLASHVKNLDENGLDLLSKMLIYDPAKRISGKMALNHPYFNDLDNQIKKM
CDK1/CCNB1, sequence (P14635 whole entry partner): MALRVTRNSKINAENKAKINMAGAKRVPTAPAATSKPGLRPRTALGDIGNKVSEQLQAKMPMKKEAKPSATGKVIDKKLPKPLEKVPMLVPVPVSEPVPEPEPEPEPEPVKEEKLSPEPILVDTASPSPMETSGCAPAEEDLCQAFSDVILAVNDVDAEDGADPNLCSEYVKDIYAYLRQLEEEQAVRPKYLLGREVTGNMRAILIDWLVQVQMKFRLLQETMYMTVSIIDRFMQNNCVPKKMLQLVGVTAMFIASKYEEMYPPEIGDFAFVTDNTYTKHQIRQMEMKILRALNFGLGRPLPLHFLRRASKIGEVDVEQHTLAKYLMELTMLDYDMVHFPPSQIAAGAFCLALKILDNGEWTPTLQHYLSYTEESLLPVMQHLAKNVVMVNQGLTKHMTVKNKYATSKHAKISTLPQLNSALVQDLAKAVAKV
Summary of the method: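 Read-out: TR-FRET (Eu anti-phospho-4E-BP1 Thr37/46 antibody, 2 nM; 665 nm or 665/615 ratio) after 60 min phosphorylation of 50 nM ULight-peptide by 0.5 nM CDK1/CCNB1 at 1 mM ATP, 23 °C. Compound preincubated 20 min with enzyme; 1% DMSO.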

[5] = x = IC50 >250 nM, read-out: CDK4/CCND IC50 (>250 nM column)
[6] = x = IC50 25-250 nM, read-out: CDK2/CCNE IC50 (25-250 nM)
[7] = x = IC50 >250 nM, read-out: CDK6/CCND IC50 (>250 nM column)
[8] = x = IC50 >250 nM, read-out: CDK1/CCNB IC50 (>250 nM column)
[9] = >250 nM, read-out: CDK4/CCND IC50, >250 nM
[10] = 25-250 nM, read-out: CDK2/CCNE IC50, 25-250 nM
[11] = >250 nM, 1 mM ATP, read-out: CDK6/CCND IC50, >250 nM
[12] = >250 nM, read-out: CDK1/CCNB IC50 >250 nM
[13] = >250 nM marked x, read-out: CDK4/CCND IC50 >250 nM
[14] = <25 nM, read-out: CDK2/CCNE IC50 <25 nM
[15] = >250 nM marked x, read-out: CDK6/CCND IC50 >250 nM
[16] = >250 nM marked x, read-out: CDK1/CCNB IC50 >250 nM
[17] = x = IC50 <25 nM, read-out: CDK2/CCNE IC50 (<25 nM)

CDK4/CCND3, sequence (P11802 whole entry): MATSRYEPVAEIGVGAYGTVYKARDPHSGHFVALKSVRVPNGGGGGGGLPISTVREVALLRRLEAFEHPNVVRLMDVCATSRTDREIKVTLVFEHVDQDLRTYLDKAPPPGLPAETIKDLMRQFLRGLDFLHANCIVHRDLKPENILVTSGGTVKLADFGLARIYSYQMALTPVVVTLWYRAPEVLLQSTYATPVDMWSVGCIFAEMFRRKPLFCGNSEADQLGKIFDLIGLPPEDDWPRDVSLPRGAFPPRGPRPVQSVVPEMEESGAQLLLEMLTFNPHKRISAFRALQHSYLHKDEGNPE
CDK4/CCND3, sequence (P30281 whole entry partner): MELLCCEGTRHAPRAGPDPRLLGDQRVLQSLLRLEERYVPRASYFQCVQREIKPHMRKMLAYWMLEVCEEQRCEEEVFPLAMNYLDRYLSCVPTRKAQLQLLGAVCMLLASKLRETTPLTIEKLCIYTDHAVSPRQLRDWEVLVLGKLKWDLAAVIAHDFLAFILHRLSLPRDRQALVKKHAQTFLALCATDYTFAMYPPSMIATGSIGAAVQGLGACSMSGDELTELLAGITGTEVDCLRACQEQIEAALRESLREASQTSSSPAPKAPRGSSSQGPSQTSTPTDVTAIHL

SMILES: CS(=O)(=O)c1ccc(Nc2cc3c(C#Cc4ccc5ncoc5c4)nccc3cn2)cc1 [Ex 604, 5-(benzo[d]oxazol-6-ylethynyl)-N-(4-(methylsulfonyl)phenyl)-2,6-naphthyridin-3-amine]
pIC50 [1, 5]: < 6.60 | pIC50 [2, 6]: 6.60 to 7.60 | pIC50 [3, 7]: < 6.60 | pIC50 [4, 8]: < 6.60

SMILES: N#Cc1ccc(C#Cc2nccc3cnc(Nc4ccc(S(=O)(=O)CCO)cc4)cc23)cc1 [Ex 665, 4-((7-((4-((2-hydroxyethyl)sulfonyl)phenyl)amino)-2,6-naphthyridin-1-yl)ethynyl)benzonitrile]
pIC50 [1, 5]: < 6.60 | pIC50 [2, 6]: 6.60 to 7.60 | pIC50 [3, 7]: < 6.60 | pIC50 [4, 8]: < 6.60

SMILES: C=CS(=O)(=O)c1ccc(Nc2cc3c(-c4ccc5cc[nH]c5c4)nccc3cn2)cc1 [Ex 162, 5-(1H-indol-6-yl)-N-(4-(vinylsulfonyl)phenyl)-2,6-naphthyridin-3-amine]
pIC50 [1, 13]: < 6.60 | pIC50 [2, 14]: > 7.60 | pIC50 [3, 15]: < 6.60 | pIC50 [4, 16]: < 6.60

SMILES: CS(=O)(=O)c1ccc(Nc2cc3c(C#Cc4ccc(N)nc4Cl)nccc3cn2)cc1 [Ex 558, 5-((6-amino-2-chloropyridin-3-yl)ethynyl)-N-(4-(methylsulfonyl)phenyl)-2,6-naphthyridin-3-amine]
pIC50 [1, 5]: < 6.60 | pIC50 [2, 6]: 6.60 to 7.60 | pIC50 [3, 7]: < 6.60 | pIC50 [4, 8]: < 6.60

SMILES: CS(=O)(=O)N1CCC(Nc2cc3c(-c4ccc(CO)cc4)nccc3cn2)CC1 [Ex 78, (4-(7-((1-(methylsulfonyl)piperidin-4-yl)amino)-2,6-naphthyridin-1-yl)phenyl)methanol]
pIC50 ([1]; 25-250 nM marked x, read-out: CDK4/CCND IC50 25-250 nM): 6.60 to 7.60 | pIC50 [2, 14]: > 7.60 | pIC50 ([3]; <25 nM, read-out: CDK6/CCND IC50 <25 nM): > 7.60 | pIC50 [4, 16]: < 6.60

SMILES: CCC(=O)N1CCC(c2nccc3cnc(Nc4ccc(S(C)(=O)=O)cc4)cc23)C1 (racemic) [Ex 234, 1-(3-(7-((4-(methylsulfonyl)phenyl)amino)-2,6-naphthyridin-1-yl)pyrrolidin-1-yl)propan-1-one]
pIC50 [1, 13]: < 6.60 | pIC50 ([2]; >250 nM marked x, read-out: CDK2/CCNE IC50 >250 nM): < 6.60 | pIC50 [3, 15]: < 6.60 | pIC50 [4, 16]: < 6.60

SMILES: Cc1cc(S(C)(=O)=O)ccc1Nc1cc2c(C#Cc3ccc4c(c3)NC(=O)C43CC3)nccc2cn1 [Ex 351, 6'-((7-((2-methyl-4-(methylsulfonyl)phenyl)amino)-2,6-naphthyridin-1-yl)ethynyl)spiro[cyclopropane-1,3'-indolin]-2'-one]
pIC50 [1, 5]: < 6.60 | pIC50 [2, 17]: > 7.60 | pIC50 [3, 7]: < 6.60 | pIC50 [4, 8]: < 6.60

Now from value to molecule:

pIC50 [1, 9]: < 6.60 | pIC50 [2, 10]: 6.60 to 7.60 | pIC50 [3, 11]: < 6.60 | pIC50 [4, 12]: < 6.60
SMILES: CS(=O)(=O)c1ccc(Nc2cc3c(C#Cc4ccc(C#N)s4)nccc3cn2)cc1 [Ex 900, 5-((7-((4-(methylsulfonyl)phenyl)amino)-2,6-naphthyridin-1-yl)ethynyl)thiophene-2-carbonitrile]

pIC50 [1, 9]: < 6.60 | pIC50 [2, 10]: 6.60 to 7.60 | pIC50 [3, 11]: < 6.60 | pIC50 [4, 12]: < 6.60
SMILES: Cc1c(-c2nccc3cnc(Nc4ccc(S(=O)(=O)N5CCCCC5)cc4)cc23)ccc2c1cnn2CC(C)(C)O [Ex 923, 2-methyl-1-(4-methyl-5-(7-((4-(piperidin-1-ylsulfonyl)phenyl)amino)-2,6-naphthyridin-1-yl)-1H-indazol-1-yl)propan-2-ol]

pIC50 [1, 9]: < 6.60 | pIC50 ([2]; <25 nM, read-out: CDK2/CCNE IC50, <25 nM): > 7.60 | pIC50 [3, 11]: < 6.60 | pIC50 [4, 12]: < 6.60
SMILES: Cc1c(-c2nccc3cnc(Nc4ccc(S(=O)(=O)Nc5cc(C(F)(F)F)ccn5)cc4)cc23)ccc2c1cnn2CC(C)(C)O [Ex 816, 4-((5-(1-(2-hydroxy-2-methylpropyl)-4-methyl-1H-indazol-5-yl)-2,6-naphthyridin-3-yl)amino)-N-(4-(trifluoromethyl)pyridin-2-yl)benzenesulfonamide]

pIC50 ([1]; x = IC50 25-250 nM, read-out: CDK4/CCND IC50 (25-250 nM)): 6.60 to 7.60 | pIC50 [2, 17]: > 7.60 | pIC50 ([3]; x = IC50 25-250 nM, read-out: CDK6/CCND IC50 (25-250 nM)): 6.60 to 7.60 | pIC50 ([4]; x = IC50 25-250 nM, read-out: CDK1/CCNB IC50 (25-250 nM)): 6.60 to 7.60
SMILES: CC1(CO)C(=O)Nc2cc(C#Cc3nccc4cnc(Nc5ccc(S(C)(=O)=O)cc5)cc34)ccc21 (single isomer, unassigned) [Example 372, 3-(hydroxymethyl)-3-methyl-6-((7-((4-(methylsulfonyl)phenyl)amino)-2,6-naphthyridin-1-yl)ethynyl)indolin-2-one]

From patent US20260325533A1, “CDK INHIBITOR COMPOUNDS” (ALEKSIA THERAPEUTICS, INC., priority 2023, published 2026)
